Experimental data reported in article PMC8621172, “Manipulating Estrogenic/Anti-Estrogenic Activity of Triphenylethylenes towards Development of Novel Anti-Neoplastic SERMs” (International Journal of Molecular Sciences, 2021).

Key:
human ERα = target: T1, human ERα (Homo sapiens, UniProt P03372); test: Yeast estrogen screen (YES) assay, antagonistic activity (β-galactosidase reporter); assay type: cell-based, yeast (Saccharomyces cerevisiae); conditions: compounds at 1 µM in presence of 0.5 nM/1 nM E2 (E2 set as 1); triplicates
T1 construct: host or cells: Saccharomyces cerevisiae
T1 sequence (P03372 1-595): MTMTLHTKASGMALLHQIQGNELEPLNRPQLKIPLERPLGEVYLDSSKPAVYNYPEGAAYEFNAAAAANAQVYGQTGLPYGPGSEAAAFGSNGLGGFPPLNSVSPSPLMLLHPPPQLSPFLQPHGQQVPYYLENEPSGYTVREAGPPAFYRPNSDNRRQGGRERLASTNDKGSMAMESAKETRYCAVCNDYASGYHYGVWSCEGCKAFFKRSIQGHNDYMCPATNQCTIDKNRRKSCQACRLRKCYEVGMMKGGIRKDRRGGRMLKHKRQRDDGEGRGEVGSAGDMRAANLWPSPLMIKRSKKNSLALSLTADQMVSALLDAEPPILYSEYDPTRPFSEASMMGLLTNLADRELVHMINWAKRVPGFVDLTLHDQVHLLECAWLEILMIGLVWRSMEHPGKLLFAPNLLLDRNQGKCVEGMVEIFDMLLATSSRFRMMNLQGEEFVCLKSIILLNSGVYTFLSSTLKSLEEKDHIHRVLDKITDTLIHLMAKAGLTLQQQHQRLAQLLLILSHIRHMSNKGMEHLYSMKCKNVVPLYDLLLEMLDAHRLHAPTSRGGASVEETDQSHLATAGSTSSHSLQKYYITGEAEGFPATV
Description: All synthesized compounds were tested for their relative activity in β-galactosidase in a yeast estrogen screen (YES) assay. Compounds were tested for their relative estrogenic/anti-estrogenic activities in comparison to positive and negative controls, respectively. YES assay is a gene reporter assay where the DNA sequence of human ERα is integrated into the yeast genome completed with an expression plasmid carrying estrogen response elements (ERE) in the promoter controlling the expression of the reporter gene lacZ (encoding the enzyme β-galactosidase). In the presence of estrogenic compounds, β-galactosidase is synthesized and secreted into the medium, where it converts the chromogenic substrate chlorophenol red-β-D-galactopyranoside (CRPG) from a yellow to a red product, whose absorbance is measured. […] Therefore, we decided to test the novel compounds in an organ-specific in vitro model using the human Ishikawa endometrial adenocarcinoma cell line.
The yeast estrogen receptor assay was supplied by Dr. J.P. Sumpter (Brunel University, Uxbridge, UK) and was used to determine the relative transactivation activity of the human ERα as formerly described. Briefly, Saccharomyces cerevisiae stably transfected with a human ERα and an estrogen-responsive element fused to the reporter gene lacZ encoding for β-galactosidase were treated with the test substances for about 48 h. The β-galactosidase enzymatic activity was measured in a colorimetric assay using a microplate photometer by hydrolysis of the substrate chlorophenol red β-D-galactopyranoside (Roche Diagnostics, Mannheim, Germany), which leads to the formation of chlorophenol red. This can be measured as an increased absorption at 540 nm. All compounds were diluted in DMSO. […] All compounds were tested in technical quadruplicates and biological triplicates. Statistical analysis was performed by analysis of variance (ANOVA) and Tukey’s post-hoc test with the significance level of p < 0.05.

MCF-7 cells = test: NCI growth inhibition on MCF-7 (single dose and five-dose, SRB); assay type: cell-based, human; conditions: for inhibition at 10 µM / GI50: Homo sapiens, MCF7; for GI50: MCF-7, five-dose assay, 48 h; for inhibition at 10 µM / Growth Inhibition on MCF-7 (%): 10 µM
Description: Compounds were submitted to the Developmental Therapeutics Program (DTP) of the National Cancer Institute (NCI). The program uses a panel of 60 human tumor cell lines representing nine tissue types, including leukemia, non-small cell lung cancer (NSCLC), melanoma, colon cancer, ovarian cancer, CNS cancer, renal cancer, prostate cancer, and breast cancer, to screen for potential new anti-cancer agents. […] Primary screening of synthesized compounds was performed by testing a single high dose of 10 µM in the full NCI-60 panel. The percent growth of treated cells relative to the no-drug control and relative to the time zero number of cells was measured, and a mean graph was provided. The percentage inhibition was then calculated by subtracting the values obtained from 100.
All compounds were subjected to the NCI in vitro disease-oriented human cells screening panel assay. The human tumor cell lines of the cancer-screening panel are grown in RPMI 1640 medium containing 5% fetal bovine serum and 2 mM L-glutamine. For a typical screening experiment, cells are inoculated into 96-well microtiter plates in 100 μL at plating densities ranging from 5000 to 40,000 cells/well depending on the doubling time of individual cell lines. After cell inoculation, the microtiter plates are incubated at 37 °C, 5% CO2, 95% air, and 100% relative humidity for 24 h prior to the addition of experimental drugs. After 24 h, two plates of each cell line are fixed in situ with TCA to represent a measurement of the cell population for each cell line at the time of drug addition. Experimental drugs are solubilized in dimethyl sulfoxide at 400-fold the desired final maximum test concentration and stored frozen prior to use. At the time of drug addition, an aliquot of frozen concentrate is thawed and diluted to twice the desired final maximum test concentration with complete medium containing 50 μg/mL gentamicin. Additional four, 10-fold, or ½ log serial dilutions are made to provide a total of five drug concentrations plus control. Aliquots of 100 μL of these different drug dilutions are added to the appropriate microtiter wells already containing 100 μL of medium, resulting in the required final drug concentrations. Following drug addition, the plates are incubated for an additional 48 h at 37 °C, 5% CO2, 95% air, and 100% relative humidity. For adherent cells, the assay is terminated by the addition of cold TCA. Cells are fixed in situ by the gentle addition of 50 μL of cold 50% (w/v) TCA (final concentration, 10% TCA) and incubated for 60 min at 4 °C. The supernatant is discarded, and the plates are washed five times with tap water and air-dried. Sulforhodamine B (SRB) solution (100 μL) at 0.4% (w/v) in 1% acetic acid is added to each well, and plates are incubated for 10 min at room temperature. After staining, unbound dye is removed by washing five times with 1% acetic acid, and the plates are air-dried. Bound stain is subsequently solubilized with a 10 mM trizma base, and the absorbance is read on an automated plate reader at a wavelength of 515 nm. For suspension cells, the methodology is the same except that the assay is terminated by fixing settled cells at the bottom of the wells by gently adding 50 μL of 80% TCA (final concentration, 16% TCA). Compounds are screened at a dose of 10 µM, hits showing mean growth inhibition over 60 cell lines >50% are escalated for 5-dose screening assay. To construct a dose-response curve, about 60 cell lines of nine tumor subpanels were incubated with five concentrations (0.01–100 μM) for each compound. Three response parameters (GI50, TGI, and LC50) were calculated for each cell line.

Structure (SMILES) | Anti-Estrogenic Activity (relative β-galactosidase activity) (human ERα) | inhibition at 10 µM (MCF-7 cells) [%] | GI50 (MCF-7 cells) [nM] | Growth Inhibition on MCF-7 (%) (MCF-7 cells)
CCN(CC)CCOc1ccc(C(=C(C)c2ccc(F)c(OC)c2)c2ccc(Cl)cc2)cc1 [Compound 28, E/Z-(2-{4-[1-(4-Chlorophenyl)-2-(4-fluoro-3-methoxyphenyl)-propenyl]-phenoxy}-ethyl)-diethyl-amine] | 0.86 ± 0.07 | > 100 | 2170 | 
COc1ccc(C(C)=C(c2ccc(Cl)cc2)c2ccc(OCCN3CCCCC3)cc2)cc1 [Compound 12, E/Z-1-(2-{4-[1-(4-Chloro-phenyl)-2-(4-methoxy-phenyl)-propenyl]-phenoxy}-ethyl)-piperidine] | 2.55 ± 0.41 | 79.7 | 600 | 
COc1cc(C(C)=C(c2ccc(Cl)cc2)c2ccc(OCCCN(C)C)cc2)ccc1F [Compound 22, E/Z-(3-{4-[1-(4-Chlorophenyl)-2-(4-fluoro-3-methoxyphenyl)-propenyl]-phenoxy}-propyl)-dimethyl-amine] | 0.97 ± 0.03 | 33.2 |  | 
CC(=C(c1ccc(Cl)cc1)c1ccc(OCCN2CCCC2)cc1)c1ccccc1 [Compound 6, E/Z-1-(2-{4-[1-(4-Chloro-phenyl)-2-phenyl-propenyl]-phenoxy}-ethyl)-pyrrolidine] | 1.20 ± 0.19 | 66.2 |  | 
COc1cc(C(C)=C(c2ccc(O)cc2)c2ccc(Cl)cc2)ccc1F [Compound 4, E/Z-4-[1-(4-Chlorophenyl)-2-(4-fluoro-3-methoxyphenyl)propenyl]-phenol] |  |  |  | No inhibition
COc1ccc(C(C)=C(c2ccc(Cl)cc2)c2ccc(OCCN(C)C)cc2)cc1F [Compound 20, E/Z-(2-{4-[1-(4-Chlorophenyl)-2-(3-fluoro-4-methoxyphenyl)-propenyl]-phenoxy}-ethyl)-dimethyl-amine] |  | 68.2 |  | 
COc1ccc(C(C)=C(c2ccc(Cl)cc2)c2ccc(OCCN3CCCC3)cc2)cc1F [Compound 16, E/Z-1-(2-{4-[1-(4-Chlorophenyl)-2-(3-fluoro-4-methoxyphenyl)-propenyl]-phenoxy}-ethyl)-pyrrolidine] |  | 90 | 2410 | 
COc1cc(C(C)=C(c2ccc(Cl)cc2)c2ccc(OCCN3CCCC3)cc2)ccc1F [Compound 23, E/Z-1-(2-{4-[1-(4-Chlorophenyl)-2-(4-fluoro-3-methoxyphenyl)-propenyl]-phenoxy}-ethyl)-pyrrolidine] | 1.06 ± 0.05 | 73.5 |  | 
CC(=C(c1ccc(Cl)cc1)c1ccc(OCCN2CCCCCC2)cc1)c1ccccc1 [Compound 9, E/Z-1-(2-{4-[1-(4-Chloro-phenyl)-2-phenyl-propenyl]-phenoxy}-ethyl)-azepane] | 1.99 ± 0.02 | 24 |  | 
COc1ccc(C(C)=C(c2ccc(Cl)cc2)c2ccc(OCCN3CCCCCC3)cc2)cc1F [Compound 19, E/Z-1-(2-{4-[1-(4-Chlorophenyl)-2-(3-fluoro-4-methoxyphenyl)-propenyl]-phenoxy}-ethyl)-azepane] |  | 75.9 | 3590 | 
COc1ccc(C(C)=C(c2ccc(Cl)cc2)c2ccc(OCCN3CCCC3)cc2)cc1 [Compound 11, E/Z-1-(2-{4-[1-(4-Chloro-phenyl)-2-(4-methoxy-phenyl)-propenyl]-phenoxy}-ethyl)-pyrrolidine] | 1.55 ± 0.12 | 87 | 890 | 
COc1ccc(C(C)=C(c2ccc(Cl)cc2)c2ccc(OCCN3CCCCCC3)cc2)cc1 [Compound 14, E/Z-1-(2-{4-[1-(4-Chloro-phenyl)-2-(4-methoxy-phenyl)-propenyl]-phenoxy}-ethyl)-azepane] | 1.53 ± 0.09 | 63.5 |  | 
COc1cc(C(C)=C(c2ccc(Cl)cc2)c2ccc(OCCN3CCCCC3)cc2)ccc1F [Compound 24, E/Z-1-(2-{4-[1-(4-Chlorophenyl)-2-(4-fluoro-3-methoxyphenyl)-propenyl]-phenoxy}-ethyl)-piperidine] | 1.19 ± 0.10 | 49.3 |  | 
COc1ccc(C(C)=C(c2ccc(Cl)cc2)c2ccc(OCCN3CCOCC3)cc2)cc1 [Compound 13, E/Z-4-(2-{4-[1-(4-Chloro-phenyl)-2-(4-methoxy-phenyl)-propenyl]-phenoxy}-ethyl)-morpholine] |  | 1.21 |  | 
COc1ccc(C(C)=C(c2ccc(O)cc2)c2ccc(Cl)cc2)cc1F [Compound 3, E/Z-4-[1-(4-Chlorophenyl)-2-(3-fluoro-4-methoxyphenyl)propenyl]-phenol] |  |  |  | No inhibition
COc1ccc(C(C)=C(c2ccc(Cl)cc2)c2ccc(OCCN3CCOCC3)cc2)cc1F [Compound 18, E/Z-4-(2-{4-[1-(4-Chlorophenyl)-2-(3-fluoro-4-methoxyphenyl)-propenyl]-phenoxy}-ethyl)-morpholine] |  |  |  | No inhibition
CCN(CC)CCOc1ccc(C(=C(C)c2ccc(OC)c(F)c2)c2ccc(Cl)cc2)cc1 [Compound 21, E/Z-(2-{4-[1-(4-Chlorophenyl)-2-(3-fluoro-4-methoxyphenyl)-propenyl]-phenoxy}-ethyl)-diethyl-amine] |  | 29.7 |  | 
COc1ccc(C(C)=C(c2ccc(Cl)cc2)c2ccc(OCCN3CCCCC3)cc2)cc1F [Compound 17, E/Z-1-(2-{4-[1-(4-Chlorophenyl)-2-(3-fluoro-4-methoxyphenyl)-propenyl]-phenoxy}-ethyl)-piperidine] |  | 85 | 3340 | 
COc1ccc(C(C)=C(c2ccc(Cl)cc2)c2ccc(OCCCN(C)C)cc2)cc1F [Compound 15, E/Z-(3-{4-[1-(4-Chlorophenyl)-2-(3-fluoro-4-methoxyphenyl)-propenyl]-phenoxy}-propyl)-dimethyl-amine] |  | 87 |  | 
